How the values were obtained:
[1] = test system: beet armyworm (Spodoptera exigua); experiment: Test F: oviposition and egg hatch of treated beet armyworm adults; type: in vivo; conditions: for % of reduction: oviposition versus control; for No. neonates: total from successful egg hatch
Text: For evaluating the reproductive performance effects on beet armyworm (Spodoptera exigua), each test unit consisted of one pair of adult (female and male) Spodoptera exigua moths. To obtain the adult moths, pupae of approximately the same age (±1 day) were sexed and placed in individual containers until adults emerged. After emergence, the test insects were placed in a meshed cage.
(§1) Sub-lethal concentrations of Compound 1 on beet armyworm were defined based on a preliminary study using rates of 12.5, 25, 50 and 100 ppm.
The caged adults were sprayed with test solutions of the designated treatments using a compressed air-propelled (moving) belt sprayer calibrated at 0.7 m/sec (to deliver a flow rate was ca. 5.5 mL/sec), at 207 kPa, using nozzle 8001E Tee Jet flat fan spray nozzle positioned 18 cm above the test units. Each treatment had 12 replicates (i.e. 12 adult females and 12 adult males were used per treatment).
One day after treatment, a treated male and female (one each) were placed in a cage made from a 300 mL clear plastic cup covered with screened cloth and allowed to copulate. A cotton wick/plug soaked with 10% sucrose solution was supplied in each cage as a diet source.
The number of eggs laid and number of eggs hatched were counted at 3, 4, 5 and 6 days after treatment (DAT), which represented the typical period in which female moths actively produce viable eggs. The pair of moths was transferred to a new cage after each evaluation. To evaluate the number of egg hatched, the copulation cages containing eggs were saved and maintained in a growth chamber at 27° C., 50% relative humidity and 16 hours of light per day.
The raw data were analyzed using Fisher's LSD tests for means separation. […] The percent of reduction was derived by dividing the number of eggs from each treatment by the number of eggs from the control, subtracting the quotient from 1, and then multiplying by 100%.

[2] = test system: diamondback moth (Plutella xylostella); experiment: Test G: number of eggs (fecundity) of adult diamondback moth; type: in vivo; conditions: 10 ppm, control itself gave very few eggs
Text: For evaluating the reproductive performance effects on diamondback moth (Plutella xylostella), a minimum of 120 larvae of diamondback moth of each sex were used. Male and female individuals of late instar larvae were separated and caged in individual containers containing Chinese kale. Male diamondback moths were identified by a white dot on the abdomen at the late instar larval stage. When pupae emerged, each pupa was caged separately until it emerged as adult.
In addition, a control without test compound was included.
Groups of 40 newly emerged (<24 hours) moths of the same sex were placed inside a meshed cage. The caged adult moths were then sprayed with the test solution, using a CO2 backpack sprayer at 500 L/Ha. For the control treatment, the adults were sprayed with water at a similar spray volume. The groups of treated individuals were then transferred into a clean container with a source of adult diet (i.e. a cotton wick soaked in 10% sucrose solution). Separate containers were used for different groups of treated insects. One day after treatment, the numbers of live, moribund and dead adults were counted. One live treated male and one live treated female were placed together in a copulation cage, which was a 300 mL clear plastic cup covered with nylon screen supplied with an adult diet source of 10% sucrose solution.
Each pair of virgin adults was a replicate, and each treatment consisted of 10 to 20 replicates. Every day each pair of moths was moved to a new cup supplied with a diet of 10% sucrose solution.
The number of eggs laid per female moth was counted daily during the two days when the female moths actively produced viable eggs. The results, listed in Table G, indicate that no meaningful comparative information can be inferred, as the even the Control provided very few eggs per female moth; this indicates a systemic reproduction problem from unknown causes. However, had the Control worked, we expect to see the reproductive performance effects on diamondback moth.

[3] = test system: beet armyworm; experiment: Preliminary dose-response study on beet armyworm; type: in vivo, Spodoptera exigua; conditions: beet armyworm adults; estimated from the dose-response curve (12.5, 25, 50 and 100 ppm)
Text: The sub-lethal concentrations or doses used in the various tests for the specific pest species and populations tested in the context of the present invention were estimated from multiple-rate, dose-finding tests to determine the control rates and activity break rates. […] Therefore, depending on the target pest species, either the LC50 or a suitable concentration between LC50 and LC20 was selected as the sub-lethal dose. The specific procedures used to select the respective doses are described in each Test.
as §1

SMILES: CNC(=O)c1cc(Cl)cc(C)c1NC(=O)c1cc(Br)nn1-c1ncccc1Cl [Compound 1, 3-bromo-N-[4-chloro-2-methyl-6-[(methylamino)carbonyl]phenyl]-1-(3-chloro-2-pyridinyl)-1H-pyrazole-5-carboxamide]
- % hatched ([1]; 12.5 ppm, 3 DAT): 83%
- No. eggs ([1]; 12.5 ppm, 3 DAT): 782 b
- % of reduction ([1]; 12.5 ppm, 3 DAT): 66%
- No. neonates ([1]; 12.5 ppm, 3 DAT): 647 b
- % hatched ([1]; 12.5 ppm, 4 DAT): 82%
- No. eggs ([1]; 12.5 ppm, 4 DAT): 315 b
- % of reduction ([1]; 12.5 ppm, 4 DAT): 66%
- No. neonates ([1]; 12.5 ppm, 4 DAT): 257 b
- % hatched ([1]; 12.5 ppm, 5 DAT): 60%
- No. eggs ([1]; 12.5 ppm, 5 DAT): 256 b
- % of reduction ([1]; 12.5 ppm, 5 DAT): 77%
- No. neonates ([1]; 12.5 ppm, 5 DAT): 154 b
- % hatched ([1]; 12.5 ppm, 6 DAT): 41%
- No. eggs ([1]; 12.5 ppm, 6 DAT): 219 b
- % of reduction ([1]; 12.5 ppm, 6 DAT): 73%
- No. neonates ([1]; 12.5 ppm, 6 DAT): 90 b
- % hatched ([1]; 20 ppm, 3 DAT): 31%
- No. eggs ([1]; 20 ppm, 3 DAT): 208 b
- % of reduction ([1]; 20 ppm, 3 DAT): 91%
- No. neonates ([1]; 20 ppm, 3 DAT): 65 b
- % hatched ([1]; 20 ppm, 4 DAT): 0%
- No. eggs ([1]; 20 ppm, 4 DAT): 134 bc
- % of reduction ([1]; 20 ppm, 4 DAT): 91%
- No. neonates ([1]; 20 ppm, 4 DAT): 0 b
- % hatched ([1]; 20 ppm, 5 DAT): 0%
- No. eggs ([1]; 20 ppm, 5 DAT): 132 b
- % of reduction ([1]; 20 ppm, 5 DAT): 89%
- No. neonates ([1]; 20 ppm, 5 DAT): 0 b
- % hatched ([1]; 20 ppm, 6 DAT): 0%
- No. eggs ([1]; 20 ppm, 6 DAT): 109 b
- % of reduction ([1]; 20 ppm, 6 DAT): 87%
- No. neonates ([1]; 20 ppm, 6 DAT): 0 b
- % hatched ([1]; 31 ppm, 3 DAT): 0%
- No. eggs ([1]; 31 ppm, 3 DAT): 61 b
- % of reduction ([1]; 31 ppm, 3 DAT): 97%
- No. neonates ([1]; 31 ppm, 3 DAT): 0 b
- % hatched ([1]; 31 ppm, 4 DAT): 0%
- No. eggs ([1]; 31 ppm, 4 DAT): 29 c
- % of reduction ([1]; 31 ppm, 4 DAT): 97%
- No. neonates ([1]; 31 ppm, 4 DAT): 0 b
- % hatched ([1]; 31 ppm, 5 DAT): 0%
- No. eggs ([1]; 31 ppm, 5 DAT): 91 b
- % of reduction ([1]; 31 ppm, 5 DAT): 92%
- No. neonates ([1]; 31 ppm, 5 DAT): 0 b
- % hatched ([1]; 31 ppm, 6 DAT): 0%
- No. eggs ([1]; 31 ppm, 6 DAT): 108 b
- % of reduction ([1]; 31 ppm, 6 DAT): 87%
- No. neonates ([1]; 31 ppm, 6 DAT): 0 b
- number of eggs (fecundity) and number of neonates (fertility) versus control ([1]; all the tested rates (12.5, 20, 31 ppm), all the observation dates): significant reductions
- No. of eggs per female moth ([2]; 1 DAT): 0
- No. of eggs per female moth ([2]; 2 DAT): 2.2
- LC20 [3]: 12.5 ppm
- LC50 [3]: 20 ppm
- LC80 [3]: 31 ppm

From patent publication US20090076092A1, “METHOD FOR DISRUPTING REPRODUCTIVE PERFORMANCE OF ARTHROPODS” (priority 2006, published 2009)
